# Assay results published in patent publication US20240252527A9, “NUCLEOSIDE DRUGS FOR THE TREATMENT OR PREVENTION OF CORONAVIRUS INFECTION AND THEIR USES” (Miracure Biotechnology Limited, priority 2022, published 2024).
# Where two headings read alike, the source gives them in different places.
# Columns and labels:
# OC43 = OC43 Huh7 CPE assay (cytopathic experiment); assay type: cell-based, coronavirus OC43 (HCoV-OC43); details: for EC50: read-out: OC43 Huh7 CPE assay (μM) EC50; for EC90: read-out: OC43 Huh7 CPE assay (μM) EC90
# Procedure: (§1) Cells were seeded into microplates at a certain density and cultured overnight in a incubator at 5% CO2, 37° C. The next day, double-diluted compound and virus were added. It was set up a cell control group (cells without treatment with a compound or virus infection), a virus control group (cells infected with virus, no compound treatment) and a culture medium control group (medium only). Cells were cultured in the incubator for 3 days (229E) or 7 days (OC43). Cytotoxicity experiments were performed under the same conditions as antiviral experiments, but without virus infection. Cell viability was tested using a cell viability assay kit Cell Titer Glo (Promega).
# (§2) The antiviral activity and cytotoxicity of the compounds were expressed by the inhibition rate (%) and cell viability (%) of the compounds against virus-induced cytopathic effects at different concentrations, respectively. Nonlinear fitting analysis on the inhibition rate and cell viability of the compounds were carried out with the GraphPad Prism, and the half effective concentration (EC50), the […] effective concentration (EC90), the half cytotoxic concentration (CC50) and the 90% cytotoxic concentration of the compound […] values were calculated.
# 229E = 229E MRC5 CPE assay (cytopathic experiment); assay type: cell-based, coronavirus 229E (HCoV-229E)
# Procedure: as §1, §2
# [1] = Betacoronavirus 1, OC43, Huh-7, 168 h
# [2] = Human coronavirus 229E, MRC5, 72 h, read-out: 229E MRC5 CPE assay (μM) EC50
# [3] = Human coronavirus 229E, MRC5, 72 h, read-out: 229E MRC5 CPE assay (μM) EC90
# [4] = Betacoronavirus 1, Huh-7, 168 h, Huh7 cells, OC43 virus, 7 days, Cell Titer Glo
# [5] = Human coronavirus 229E, MRC5, 72 h; read-out: 229E MRC5 CPE assay (μM) EC50
# [6] = Human coronavirus 229E, MRC5, 72 h; read-out: 229E MRC5 CPE assay (μM) EC90
structure (smiles),measurement,setting,value
CC(C)OC(=O)C(C)(C)NP(=O)(OCOC(=O)c1cccnc1)OC[C@H]1O[C@@](C#N)(c2ccc3c(N)ncnn23)[C@H](O)[C@@H]1O (stereo partly drawn) [Compound 177],EC50,OC43; [1],> 0.5 µM
same,EC90,OC43; [1],> 0.5 µM
same,EC50,229E; [2],> 0.5 µM
same,EC90,229E; [3],> 0.5 µM
[2H]c1cc([C@]2(C#N)O[C@@H]3CO[P@](=O)(OCCSC(=O)C(C)(C)C)O[C@H]3[C@H]2O)n2ncnc(N)c12 [Compound 238],EC50,OC43; [1],< 0.1 µM
same,EC90,OC43; [1],< 0.1 µM
same,EC50,229E; [2],< 0.1 µM
same,EC90,229E; [3],< 0.1 µM
CCC(CC)COC(=O)[C@H](C)NP(=O)(OC[C@H]1O[C@@](C#N)(c2ccc3c(N)ncnn23)[C@H](O)[C@@H]1O)Oc1cc(N)ccc1C(=O)OC (stereo partly drawn) [Compound 128],EC50,OC43; [4],> 0.5 µM
same,EC90,OC43; [4],> 0.5 µM
same,EC50,229E; [5],> 0.5 µM
same,EC90,229E; [6],> 0.5 µM
CCCC(CCC)C(=O)OCO[P@@](=O)(OC[C@H]1O[C@@](C#N)(c2ccc3c(N)ncnn23)[C@H](O)[C@@H]1O)Oc1ccccc1 [Compound 222],EC50,OC43; [1],> 0.5 µM
same,EC90,OC43; [1],> 0.5 µM
same,EC50,229E; [5],0.1 to 0.5 µM
same,EC90,229E; [6],> 0.5 µM
CC(C)(C)C(=O)SCCO[P@@]1(=O)OC[C@H]2O[C@@](C#N)(c3ccc4c(N)ncnn34)[C@H](O)[C@@H]2O1 [Compound 236],EC50,OC43; [1],< 0.1 µM
same,EC90,OC43; [1],< 0.1 µM
same,EC50,229E; [2],< 0.1 µM
same,EC90,229E; [3],< 0.1 µM
CC(C)(C)C(=O)O[C@@H]1[C@@H]2O[P@@](=O)(O)OC[C@H]2O[C@@]1(C#N)c1ccc2c(N)ncnn12 [Compound 199],EC50,OC43; [1],> 0.5 µM
same,EC90,OC43; [1],> 0.5 µM
same,EC50,229E; [2],> 0.5 µM
same,EC90,229E; [3],> 0.5 µM
N#C[C@@]1(c2ccc3c(N)ncnn23)O[C@@H]2CO[P@@](=O)(OCOC(=O)C3CCCC3)O[C@H]2[C@H]1O [Compound 262],EC50,OC43; [1],> 0.5 µM
same,EC90,OC43; [1],> 0.5 µM
same,EC50,229E; [2],0.1 to 0.5 µM
same,EC90,229E; [3],> 0.5 µM
CCCC(CCC)C(=O)OCO[P@@](=O)(NC(C)(C)C(=O)OCC(CC)CC)OC[C@H]1O[C@@](C#N)(c2ccc3c(N)ncnn23)[C@H](O)[C@@H]1O [Compound 121],EC50,OC43; [1],0.1 to 0.5 µM
same,EC90,OC43; [1],> 0.5 µM
same,EC50,229E; [2],0.1 to 0.5 µM
same,EC90,229E; [3],0.1 to 0.5 µM
CC(C)OC(=O)CO[P@]1(=O)OC[C@H]2O[C@@](C#N)(c3ccc4c(N)ncnn34)[C@H](O)[C@@H]2O1 [Compound 146],EC50,OC43; [1],> 0.5 µM
same,EC90,OC43; [1],> 0.5 µM
same,EC50,229E; [2],> 0.5 µM
same,EC90,229E; [3],> 0.5 µM
N#C[C@@]1(c2ccc3c(N)ncnn23)O[C@@H]2CO[P@@](=O)(Oc3ccccc3)O[C@H]2[C@H]1O [Compound 220],EC50,OC43; [1],> 0.5 µM
same,EC90,OC43; [1],> 0.5 µM
same,EC50,229E; [5],> 0.5 µM
same,EC90,229E; [6],> 0.5 µM
CCCC(CCC)C(=O)OCO[P@](=O)(N[C@@H](C)C(=O)OC(C)C)OC[C@H]1O[C@@](C#N)(c2ccc3c(N)ncnn23)[C@H](O)[C@@H]1O [Compound 074],EC50,OC43; [1],< 0.1 µM
same,EC90,OC43; [1],0.1 to 0.5 µM
same,EC50,229E; [2],< 0.1 µM
same,EC90,229E; [3],< 0.1 µM
CCCC(CCC)C(=O)OCO[P@@](=O)(NC(C)(C)C(=O)OC(C)C)OC[C@H]1O[C@@](C#N)(c2ccc3c(N)ncnn23)[C@H](O)[C@@H]1O [Compound 123],EC50,OC43; [1],0.1 to 0.5 µM
same,EC90,OC43; [1],> 0.5 µM
same,EC50,229E; [2],0.1 to 0.5 µM
same,EC90,229E; [3],0.1 to 0.5 µM
CCCC(CCC)C(=O)OCO[P@](=O)(NC(C)(C)C(=O)OCC(CC)CC)OC[C@H]1O[C@@](C#N)(c2ccc3c(N)ncnn23)[C@H](O)[C@@H]1O [Compound 120],EC50,OC43; [1],< 0.1 µM
same,EC90,OC43; [1],0.1 to 0.5 µM
same,EC50,229E; [2],< 0.1 µM
same,EC90,229E; [3],0.1 to 0.5 µM
CC(C)(C)C(=O)OCO[P@](=O)(OC[C@H]1O[C@@](C#N)(c2ccc3c(N)ncnn23)[C@H](O)[C@@H]1O)Oc1ccccc1 [Compound 215],EC50,OC43; [1],> 0.5 µM
same,EC90,OC43; [1],> 0.5 µM
same,EC50,229E; [5],> 0.5 µM
same,EC90,229E; [6],> 0.5 µM
CCCN(CCC)S(=O)(=O)c1ccc(C(=O)OCO[P@](=O)(N[C@@H](C)C(=O)OCC(CC)CC)OC[C@H]2O[C@@](C#N)(c3ccc4c(N)ncnn34)[C@H](O)[C@@H]2O)cc1 [Compound 160],EC50,OC43; [1],> 0.5 µM
same,EC90,OC43; [1],> 0.5 µM
same,EC50,229E; [2],> 0.5 µM
same,EC90,229E; [3],> 0.5 µM
CCCC(CCC)C(=O)OCO[P@](=O)(N[C@H](C)C(=O)OC(C)C)OC[C@H]1O[C@@](C#N)(c2ccc3c(N)ncnn23)[C@H](O)[C@@H]1O [Compound 036],EC50,OC43; [1],0.1 to 0.5 µM
same,EC90,OC43; [1],> 0.5 µM
same,EC50,229E; [2],0.1 to 0.5 µM
same,EC90,229E; [3],0.1 to 0.5 µM
N#C[C@@]1(c2ccc3c(N)ncnn23)O[C@@H]2CO[P@](=O)(OCOC(=O)CCCc3ccccc3)O[C@H]2[C@H]1O [Compound 263],EC50,OC43; [1],0.1 to 0.5 µM
same,EC90,OC43; [1],> 0.5 µM
same,EC50,229E; [2],< 0.1 µM
same,EC90,229E; [3],< 0.1 µM
CCCN(CCC)S(=O)(=O)c1ccc(C(=O)OCOP(=O)(OCOC(=O)c2ccc(S(=O)(=O)N(CCC)CCC)cc2)OC[C@H]2O[C@@](C#N)(c3ccc4c(N)ncnn34)[C@H](O)[C@@H]2O)cc1 [Compound 164],EC50,OC43; [1],> 0.5 µM
same,EC90,OC43; [1],> 0.5 µM
same,EC50,229E; [2],> 0.5 µM
same,EC90,229E; [3],> 0.5 µM
CC(C)(C)C(=O)OCO[P@](=O)(OC[C@H]1O[C@@](C#N)(c2ccc3c(N)ncnn23)[C@H](O)[C@@H]1O)Oc1cccc2ccccc12 [Compound 217],EC50,OC43; [1],> 0.5 µM
same,EC90,OC43; [1],> 0.5 µM
same,EC50,229E; [5],> 0.5 µM
same,EC90,229E; [6],> 0.5 µM
N#C[C@@]1(c2ccc3c(N)ncnn23)O[C@H](COP(=O)(OCOC(=O)CCCc2ccccc2)OCOC(=O)CCCc2ccccc2)[C@@H](O)[C@H]1O [Compound 266],EC50,OC43; [1],> 0.5 µM
same,EC90,OC43; [1],> 0.5 µM
same,EC50,229E; [2],> 0.5 µM
same,EC90,229E; [3],> 0.5 µM
CC(C)OC(=O)CO[P@]1(=S)OC[C@H]2O[C@@](C#N)(c3ccc4c(N)ncnn34)[C@H](O)[C@@H]2O1 [Compound 149],EC50,OC43; [1],> 0.5 µM
same,EC90,OC43; [1],> 0.5 µM
same,EC50,229E; [5],> 0.5 µM
same,EC90,229E; [6],> 0.5 µM
N#C[C@@]1(c2ccc3c(N)ncnn23)O[C@H](COP(=O)(OCOC(=O)OC2CCC2)OCOC(=O)OC2CCC2)[C@@H](O)[C@H]1O [Compound 276],EC50,OC43; [1],0.1 to 0.5 µM
same,EC90,OC43; [1],> 0.5 µM
same,EC50,229E; [2],0.1 to 0.5 µM
same,EC90,229E; [3],> 0.5 µM
CCCC(CCC)C(=O)OCO[P@@](=O)(N[C@@H](C)C(=O)OC)OC[C@H]1O[C@@](C#N)(c2ccc3c(N)ncnn23)[C@H](O)[C@@H]1O [Compound 096],EC50,OC43; [1],0.1 to 0.5 µM
same,EC90,OC43; [1],0.1 to 0.5 µM
same,EC50,229E; [2],< 0.1 µM
same,EC90,229E; [3],< 0.1 µM
N#C[C@@]1(c2ccc3c(N)ncnn23)O[C@@H]2CO[P@@](=O)(OCOC(=O)Oc3ccccc3)O[C@H]2[C@H]1O [Compound 229],EC50,OC43; [1],> 0.5 µM
same,EC90,OC43; [1],> 0.5 µM
same,EC50,229E; [2],> 0.5 µM
same,EC90,229E; [3],> 0.5 µM
CC(C)(C)C(=O)OCO[P@@](=O)(OC[C@H]1O[C@@](C#N)(c2ccc3c(N)ncnn23)[C@H](O)[C@@H]1O)Oc1cccc2ccccc12 [Compound 216],EC50,OC43; [1],> 0.5 µM
same,EC90,OC43; [1],> 0.5 µM
same,EC50,229E; [5],> 0.5 µM
same,EC90,229E; [6],> 0.5 µM
"CCC(CC)COC(=O)[C@H](C)N[P@](=O)(OC[C@H]1O[C@@](C#N)(c2ccc3c(N)ncnn23)[C@H](O)[C@@H]1O)Oc1ccccc1 [Remdesivir, reference compound]",EC50,OC43; [4],< 0.1 µM
same,EC90,OC43; [4],< 0.1 µM
same,EC50,229E; [5],< 0.1 µM
same,EC90,229E; [6],0.1 to 0.5 µM
N#C[C@@]1(c2ccc3c(N)ncnn23)O[C@H](COP(=O)(OCOC(=O)OC2CCCC2)OCOC(=O)OC2CCCC2)[C@@H](O)[C@H]1O [Compound 277],EC50,229E; [2],< 0.1 µM
same,EC90,229E; [3],0.1 to 0.5 µM
N#C[C@@]1(c2ccc3c(N)ncnn23)O[C@H](COP(=O)(OCOC(=O)C2CCCC2)OCOC(=O)C2CCCC2)[C@@H](O)[C@H]1O [Compound 265],EC50,229E; [2],> 0.5 µM
same,EC90,229E; [3],> 0.5 µM
